Assay results published in patent EP4140481A1, “PROTEIN-OLIGOMER BINDING AGENTS AND THERAPEUTIC USES THEREOF” (Galyan Bio, Inc., priority 2021, dated 2023).

Legend:
C. elegans = C. elegans differential gene expression (RNA-Seq); assay type: in vivo; settings: vs. vehicle control
Description: […]. Both young (adult day 3) and aged (adult day 10) worms were collected from the same population of worms tested in lifespan assay.
Technical Background and Data Visualization Guide: Differential gene expression was performed with EdgeR using […] likelihood ratio tests based on fitting linear models. The likelihood ratios were used to determine the p-values which were subsequently corrected for using the BH false discovery rate (fdr) method. Eventually, differential expressed genes (DEG) were defined as genes with fdr-corrected p-value of 0.05 or lower, as well as a change in expression of at least 2-fold in a given between-group comparison. In this study, the following comparisons groups were used: Table 36: Comparison groups for differential gene expression
[…]. All DEG shown have P values under the cutoff of 0.05; […]. Gene function annotations collected from WormBase and human orthologs are predicted by DRSC Integrative Ortholog Prediction Tool (DIOPT, www.flyrna.org). […] […]. All DEG shown have P values under the cutoff of 0.05; […]. Gene function annotations collected from WormBase and human orthologs are predicted by DRSC Integrative Ortholog Prediction Tool (DIOPT, www.flyrna.org).

phospho-Tau (Ser396) = biological target: T1, phospho-Tau (Ser396) (Mus musculus, UniProt P10637); assay: Phospho-Tau (Ser396) immunocytochemistry in STHdh 7/7 cells; assay type: cell-based; settings: for Phospho-Tau (Ser396) reduction: heat shocked 3 hours, versus untreated STHdh 7/7
T1 construct: host or cells: ST HDH Q7/7 mouse striatal cell line
Description: Effect of Compound 4 on Phospho-Tau (Ser396) levels - ST HDH Q7/7 (CH00097, Coriell Institute) striatal derived cell line from a knock in transgenic mouse containing HTT loci with a humanized Exon 1 containing 7 polyglutamine repeats. Immunocytochemistry was conducted as described in Example 33 with the exception that instead of 3B5H10 antibody for staining mHTT, phospho-Tau (Ser396) polyclonal antibody (ThermoFisher, Catalog 44-752G) was used to stain phospho-Tau (Ser396).

R6/2 mice = assay: Rotarod in R6/2 mice of Huntington's disease; assay type: in vivo; settings: for rotarod performance: 33 mg/kg i.p. QD
Description: Methods ― Total of 20 female and male R6/2 mice and 10 female and male wild-type littermate control mice (WT) were used in the study. The mice were genotyped and the R6/2 mice were divided into different treatment groups based on their litter and baseline body weight. The treatment with Vehicle or Compound 22 (33 mg/kg; 5 ml/kg, i.p. QD) was started at 4 weeks of age after the baseline behavioral tests (Figure 6). Body weights were measured at 3 weeks of age and twice a week until the end of the study.
The experimental groups were: • Group 1) 10 wild-type mice (mixed gender) treated with Vehicle (5 ml/kg, i.p., QD) starting at 4 weeks of age • Group 2) 10 R6/2 mice (mixed gender) treated with Vehicle (5 ml/kg, i.p., QD) starting at 4 weeks of age • Group 3) 10 R6/2 mice (mixed gender) treated with Compound 22 (33 mg/kg; 5 ml/kg, i.p. QD) starting at 4 weeks of age
Compound Delivery and Dosing - Treatment with Compound 22 (33 mg/kg; 5 ml/kg, i.p. QD) or Vehicle was started at age week 4 and continued until the 12 weeks of age. The test articles were handled and stored and the dose formulations were prepared according to detailed instructions provided by the Sponsor.
Rotarod - The Rotarod test was perfomed at 4 (pre-treatment baseline), 6, 8 and 10 weeks of age. Each testing day included a training trial of 5 min at 4 RPM on the Rotarod apparatus (AccuScan Instruments, Columbus, USA). 30 minutes later, the animals were tested for 3 consecutive accelerating trials of 6 min with the speed changing from 0 to 40 RPM over 360 seconds and with an inter-trial interval of at least 30 min. The latency to fall from the rod was recorded. Mice remaining on the rod for more than 360 s were removed and their time scored as 360 sec.
[…] littermate control mice (F1 generation) were bred by Charles River Laboratories, Sulzfeld, Germany by mating (F0 generation) WT males (C57BL/6J; systematically re-infused with pedigreed JAX mice, stock 000664) with ovarian transferred (OT) TG females (JAX, stock 006494). After weaning mice were sent from Germany to Charles River, Kuopio, Finland at an age of 3 weeks. Following genotyping and acclimation, the mice were enrolled in the study.

T1 sequence (P10637 whole entry): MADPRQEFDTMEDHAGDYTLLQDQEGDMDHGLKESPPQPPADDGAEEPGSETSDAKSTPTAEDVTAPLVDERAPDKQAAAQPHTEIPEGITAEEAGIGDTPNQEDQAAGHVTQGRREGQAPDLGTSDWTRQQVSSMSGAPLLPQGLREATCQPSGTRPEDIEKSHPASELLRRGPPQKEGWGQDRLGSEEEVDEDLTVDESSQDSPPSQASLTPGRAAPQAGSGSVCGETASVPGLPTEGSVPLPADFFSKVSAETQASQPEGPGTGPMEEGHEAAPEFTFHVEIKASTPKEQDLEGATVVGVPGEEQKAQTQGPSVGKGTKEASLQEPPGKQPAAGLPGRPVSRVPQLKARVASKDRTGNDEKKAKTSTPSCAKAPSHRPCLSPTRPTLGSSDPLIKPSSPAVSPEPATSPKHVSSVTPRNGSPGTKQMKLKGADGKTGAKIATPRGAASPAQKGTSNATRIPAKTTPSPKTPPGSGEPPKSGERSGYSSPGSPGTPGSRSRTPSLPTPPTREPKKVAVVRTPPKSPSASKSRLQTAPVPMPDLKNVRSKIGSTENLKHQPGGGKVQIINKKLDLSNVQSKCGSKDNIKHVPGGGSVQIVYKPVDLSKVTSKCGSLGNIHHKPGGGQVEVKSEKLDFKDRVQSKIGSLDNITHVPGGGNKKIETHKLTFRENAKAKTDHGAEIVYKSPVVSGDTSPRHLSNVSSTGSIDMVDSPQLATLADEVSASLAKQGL

SMILES: CCc1c(C)[nH]c2ccc(C(=O)NCCN(CC)CC)cc12 [Compound 4, N-(2-(diethylamino)ethyl)-3-ethyl-2-methyl-1H-indole-5-carboxamide]
- cyp-35A1 Log2(fold change) (C. elegans; Day 3, 200 nM): 3.04
- cyp-35B1 Log2(fold change) (C. elegans; Day 3, 200 nM): 3.41
- cyp-35B2 Log2(fold change) (C. elegans; Day 3, 200 nM): 9.18
- cyp-35B3 Log2(fold change) (C. elegans; Day 3, 200 nM): 12.96
- irg-4 Log2(fold change) (C. elegans; Day 3, 200 nM): 1.37
- irg-5 Log2(fold change) (C. elegans; Day 3, 200 nM): 2.09
- pgp-13 Log2(fold change) (C. elegans; Day 3, 200 nM): 3.55
- C18H9.6 Log2(fold change) (C. elegans; Day 3, 2 µM): 1.16
- C29F3.7 Log2(fold change) (C. elegans; Day 3, 2 µM): 1.25
- D1086.3 Log2(fold change) (C. elegans; Day 3, 2 µM): 1.19
- F15B9.6 Log2(fold change) (C. elegans; Day 3, 2 µM): 1.57
- F55G11.2 Log2(fold change) (C. elegans; Day 3, 2 µM): 2.80
- T19B10.2 Log2(fold change) (C. elegans; Day 3, 2 µM): 1.79
- cpr-4 Log2(fold change) (C. elegans; Day 3, 2 µM): 1.35
- cyp-33A1 Log2(fold change) (C. elegans; Day 3, 2 µM): 1.27
- cyp-35A1 Log2(fold change) (C. elegans; Day 3, 2 µM): 8.58
- cyp-35B1 Log2(fold change) (C. elegans; Day 3, 2 µM): 5.05
- cyp-35B2 Log2(fold change) (C. elegans; Day 3, 2 µM): 11.26
- cyp-35B3 Log2(fold change) (C. elegans; Day 3, 2 µM): 15.81
- cyp-35C1 Log2(fold change) (C. elegans; Day 3, 2 µM): 2.17
- far-3 Log2(fold change) (C. elegans; Day 3, 2 µM): 1.66
- gst-5 Log2(fold change) (C. elegans; Day 3, 2 µM): 2.71
- irg-4 Log2(fold change) (C. elegans; Day 3, 2 µM): 3.88
- irg-5 Log2(fold change) (C. elegans; Day 3, 2 µM): 5.88
- pgp-13 Log2(fold change) (C. elegans; Day 3, 2 µM): 5.44
- ugt-44 Log2(fold change) (C. elegans; Day 3, 2 µM): 1.45
- cyp-35A1 Log2(fold change) (C. elegans; Day 10, 200 nM): 4.25
- cyp-35B1 Log2(fold change) (C. elegans; Day 10, 200 nM): 1.62
- cyp-35B2 Log2(fold change) (C. elegans; Day 10, 200 nM): 5.71
- cyp-35B3 Log2(fold change) (C. elegans; Day 10, 200 nM): 11.65
- irg-4 Log2(fold change) (C. elegans; Day 10, 200 nM): 1.22
- irg-5 Log2(fold change) (C. elegans; Day 10, 200 nM): 2.12
- pgp-13 Log2(fold change) (C. elegans; Day 10, 200 nM): 4.36
- F55G11.2 Log2(fold change) (C. elegans; Day 10, 2 µM): 1.70
- K08D8.6 Log2(fold change) (C. elegans; Day 10, 2 µM): 1.45
- cpr-4 Log2(fold change) (C. elegans; Day 10, 2 µM): 1.80
- cyp-35A1 Log2(fold change) (C. elegans; Day 10, 2 µM): 6.81
- cyp-35B1 Log2(fold change) (C. elegans; Day 10, 2 µM): 2.06
- cyp-35B2 Log2(fold change) (C. elegans; Day 10, 2 µM): 6.61
- cyp-35B3 Log2(fold change) (C. elegans; Day 10, 2 µM): 13.40
- cyp-35C1 Log2(fold change) (C. elegans; Day 10, 2 µM): 1.60
- gst-5 Log2(fold change) (C. elegans; Day 10, 2 µM): 2.42
- irg-4 Log2(fold change) (C. elegans; Day 10, 2 µM): 2.95
- irg-5 Log2(fold change) (C. elegans; Day 10, 2 µM): 4.26
- pgp-13 Log2(fold change) (C. elegans; Day 10, 2 µM): 6.36
- Phospho-Tau (Ser396) reduction with autophagy inhibitor (phospho-Tau (Ser396); 5 µM, 10 mM ammonium chloride): could not reduce
- Phospho-Tau (Ser396) reduction (phospho-Tau (Ser396); 5 µM): 20%
- inhibition at 10 µM (phospho-Tau (Ser396); 10 µM, 10 mM ammonium chloride, read-out: Phospho-Tau (Ser396) reduction with autophagy inhibitor): 15.2%
- Phospho-Tau (Ser396) reduction (phospho-Tau (Ser396); 10 µM): 26.3%

SMILES: Cc1[nH]c2ccc(C(=O)NCCN(C(C)C)C(C)C)cc2c1C [Compound 22]
- rotarod performance (R6/2 mice; female R6/2 mice at 10 weeks of age, normalized to 4-week baseline, versus vehicle): significantly improved
- rotarod performance (R6/2 mice; pooled genders or males, versus vehicle treated R6/2 mice): no significant differences
- mean latency to fall (R6/2 mice; 33 mg/kg intraperitoneal once daily, female R6/2 mice at 10 weeks of age (vehicle 55.7 s)): 108.3 s
- improvement of latency to fall (R6/2 mice; in comparison to untreated model mice, 10 weeks of age): 94%
